Several values for one entry are separate records, joined by “and”; a condition that tells them apart may be missing. Equal values may be shown once.
Legend:
[1] = system: primary myoblasts isolated from FSHD1-affected and FSHD-asymptomatic patients; experiment: small molecule treatment of primary myoblasts, DUX4 expression; assay type: cell-based, human; conditions: alone, or in combination; FIG. 15
Text: Trichostatin A (TSA) is a histone deacetylase inhibitor, 5-aza-2′-deoxycytidine (5′ADC) is a DNA methylation inhibitor and chaetocin (CH) is a histone methyltransferase inhibitor.

[2] = system: primary FSHD muscle cells (09Abic); experiment: JQ1 treatment time course, gene expression; assay type: cell-based, human
Text: (§1) DUX4 expression is induced during myogenic differentiation, and blocking or slowing down this process, as the case with JQ1, give the appearance of inhibiting DUX4 expression, when in fact it is merely altering the kinetics of myoginc differentiation. Importantly, these genes are misregulated by JQ1 in both FSHD and healthy human skeletal muscle myoblasts (HSMM) (FIG. 17). Therefore, JQ1 is an example of a non-specific small molecule and not appropriate for use as an FSHD therapeutic.

[3] = system: healthy human skeletal muscle myoblasts (HSMM); experiment: JQ1 treatment of healthy myoblasts, myogenic gene expression; assay type: cell-based; conditions: FIG. 17
Text: as §1

[4] = system: FSHD myocytes (05Abic, 18Abic, and 17Abic); experiment: shRNA knockdown across FSHD cohorts, DUX4-fl by qRT-PCR; assay type: cell-based, human; conditions: FIG. 11F
Text: FIGS. 11A-11F show shRNA knockdown of epigenetic regulators reduces expression of DUX4-fl in FSHD myocytes. Differentiated FSHD myocytes were infected in two serial rounds with shRNAs to ASH1L (FIG. 11A), BAZ1A (FIG. 11B), BRD2 (FIG. 11C), KDM4C (FIG. 11D), SMARCA5 (FIG. 11E), or a scrambled control. Four days later, cells were harvested for analysis of the full-length DUX4 isoform (DUX4-fl), Myogenin (Myog), MyoD, Myosin heavy chain 1 (MyHC), FRG1, Utrophin (Utr), and 18S gene expression by qRT-PCR. […] In all panels, relative mRNA expression for mock or control-infected cells is set to 1. Data are plotted as the mean+SD value of technical replicates.
(§2) Myogenic cultures derived from biceps muscles of unrelated FSHD1 patients (05Abic, 17Abic, and 18Abic) were grown in Ham's F-10 medium supplemented with 20% FBS (Hyclone), 0.5% chick embryo extract, 1% antibiotics & antimycotics, and 1.2 mM CaCl2. 293T packaging cells were grown in DMEM+10% FBS+0.1% […]. For shRNA knockdown experiments, 293T cells were transfected with lentiviral packaging plasmid (pCMV-dR8.91), envelope plasmid (VSV-G), and SIGMA MISSION shRNA expression plasmids. Lentiviral supernatants were harvested, aliquoted, and frozen at −80° C. FSHD1 skeletal myoblasts were seeded in collagen-coated 6-well plates (for gene expression analysis) or 10-cm plates (for ChIP) and grown to confluence, then allowed to self-differentiate in growth medium for ˜48 h. Cells were subjected to two rounds of infection. Briefly, lentiviral supernatants+8 μg/ml polybrene were added to cultures and the plates were incubated for 15 min at 37° C., then wrapped well with parafilm before centrifuging for 30 min at 1100 g (32° C.). Following centrifugation, the viral supernatants were replaced with growth medium. Cells were maintained in growth medium and harvested 4 d after the last round of infection. For dCas9-KRAB infections, 293T cells were transfected with lentiviral packaging plasmid (pCMV-dR8.91), envelope plasmid (VSV-G), and either dCas9-KRAB expression plasmid (#50919) or sgRNA expression plasmid using the TransIT-LT1 transfection reagent. Lentiviral supernatants were harvested at […] from 72-108 h post-transfection. FSHD1 skeletal myoblasts were seeded in collagen-coated 6-well plates and grown to ˜80% confluency, then subjected to four serial infections over two days. Cells were allowed to recover for ˜8 h in growth medium prior to the next round of infection. Following the last infection, these self-differentiated cultures were maintained in growth medium for 72 h prior to harvesting.
Total RNAs were extracted using TRIzol (Invitrogen) and purified using the RNeasy Mini kit (Qiagen) after on-column DNase I digestion. […]

[5] = system: skeletal myocytes from an FSHD1 patient (05Abic); experiment: shRNA knockdown screen in terminally differentiated FSHD myocytes, gene expression by qRT-PCR; assay type: cell-based, human; conditions: harvested 4 days after second infection, Mock = 1
Experimental: A screen to identify genes involved in DUX4 expression (e.g., when the expression of these genes is reduced in FSHD muscle cells, DUX4 expression also decreases) was performed. Briefly, primary differentiated myocytes derived from subjects having FSHD were treated with shRNA targeting candidate genes and the expression level of pathogenic DUX4-fl mRNA was quantified. The expression levels of other myogenic regulators (e.g., Myogenin, MyoD, MyHD) and other targets (e.g., FRG1, UTRN, and 18S) were also quantified to assess indirect effects of DUX4 knockdown. A sample screening protocol is shown below:
• 1. Expand low passage primary FSHD myoblasts. • 2. Plate into 6-well plates. • 3. Allow cells to reach confluence and differentiate (approximately 48 hours). • 4. Infect cells with lentiviral shRNA construct and incubate for 24 hours. • 5. Re-infect cells with lentiviral shRNA construct. • 6. Harvest cells 4 days after second infection. • 7. Extract RNA from cells and assay for expression level of DUX4-fl and other genes of interest.
as §2
Total RNAs were extracted using TRIzol (Invitrogen) and purified using the RNeasy Mini kit (Qiagen) after on-column DNase I digestion. Total RNA (2 μg) was used for cDNA synthesis using Superscript III Reverse Transcriptase (Invitrogen), and 200 ng of cDNA were used for qPCR analysis.
The D4Z4 macrosatellite array that encodes DUX4 is normally under strong epigenetic repression in adult somatic cells. […] Thirty-six candidate activators of DUX4 fl were investigated as potential drug targets (Table 3). These candidates include transcriptional regulators, chromatin remodelers, and histone modifying enzymes. For the initial screen, skeletal myocytes from an FSHD1 patient (05Abic) which express consistent and relatively high levels of DUX4 fl when terminally differentiated were used. Using lentivirus-encoded shRNAs, each candidate was knocked down in terminally differentiated cultures, then cells were harvested four days later and assessed for expression of DUX4 fl and other genes.

| Compound | DUX4 expression (in words) [1] | DUX4 expression (in words) ([2]; 09Abic) | expression of downstream genes TRIM43 and ZSCAN4 (in words) ([2]; 09Abic) | expression of myogenic regulatory genes myogenin (Myog), myoD, myosin heavy chain (MyHC), and myostatin (Myost) (in words) ([2]; time course of treatment, FIG. 16) | myogenic genes (Myog, myoD, MyHC) (in words) [3] | DUX4-fl expression (in words) [4] | 18S relative gene expression [5] | D4-fl relative gene expression [5] | FRG1 relative gene expression [5] | MyHC relative gene expression [5] | MyoD relative gene expression [5] | Myog relative gene expression [5] | Utr relative gene expression [5] |
| --- | --- | --- | --- | --- | --- | --- | --- | --- | --- | --- | --- | --- | --- |
| Nc1ncn([C@H]2C[C@H](O)[C@@H](CO)O2)c(=O)n1 [5-aza-2′-deoxycytidine] | affect DUX4 expression |  |  |  |  |  |  |  |  |  |  |  |  |
| Cc1sc2c(c1C)C(c1ccc(Cl)cc1)=N[C@@H](CC(=O)OC(C)(C)C)c1nnc(C)n1-2 [JQ1] |  | appears to inhibit | appears to inhibit | inhibiting the expression | misregulated |  |  |  |  |  |  |  |  |
| CC(/C=C/C(=O)NO)=C\[C@@H](C)C(=O)c1ccc(N(C)C)cc1 [Trichostatin A] | affect DUX4 expression |  |  |  |  |  |  |  |  |  |  |  |  |
| PJ1: shRNA targeting ASH1L; SEQ ID NO: 4 (guide CCGGCGACATAAACTTGACATCTTTCTCGAGAAAGATGTCAAGTTTATGTCGTTTTT) |  |  |  |  |  | reduce DUX4-fl expression | 1.372 | 0.3399 | 1.051 | 1.066 | 0.7238 | 1.795 | 0.6994 |
| PJ2: shRNA targeting ASH1L; SEQ ID NO: 5 (guide CCGGCCTGCCAAATACCATAAGAAACTCGAGTTTCTTATGGTATTTGGCAGGTTTTT) |  |  |  |  |  |  | 1.311 | 0.1371 | 1.172 | 0.7221 | 0.8503 | 0.8845 | 0.815 |
| PJ3: shRNA targeting ASH1L; SEQ ID NO: 6 (guide CCGGCGTACTTTGTTTATCCCAGAACTCGAGTTCTGGGATAAACAAAGTACGTTTTT) |  |  |  |  |  |  | 1.185 | 0.2434 | 1.141 | 1.341 | 0.9895 | 0.7218 | 1.128 |
| PJ11: shRNA targeting BRD2; SEQ ID NO: 10 (guide CCGGCCCTTTGCTGTGACACTTCTTCTCGAGAAGAAGTGTCACAGCAAAGGGTTTTT) |  |  |  |  |  | reduce DUX4-fl expression | 1.112 | 0.124 | 1.25 | 0.7342 | 0.9277 | 1.026 | 0.6067 |
| PJ12: shRNA targeting BRD2; SEQ ID NO: 11 (guide CCGGGCCCTCTTTACGTGATTCAAACTCGAGTTTGAATCACGTAAAGAGGGCTTTTT) |  |  |  |  |  |  | 1.099 | 0.1127 | 1.178 | 0.7927 | 0.904 | 1.088 | 0.6755 |
| PJ73: shRNA targeting KDM4C; SEQ ID NO: 1 (guide CCGGGCCTCTGACATGCGATTTGAACTCGAGTTCAAATCGCATGTCAGAGGCTTTTT) |  |  |  |  |  |  | 1.253 | 0.1101 | 1.043 | 0.7968 | 0.9045 | 1.338 | 0.6393 |
| PJ74: shRNA targeting KDM4C; SEQ ID NO: 2 (guide CCGGGCAGAGAGTAATGGTGTGTTACTCGAGTAACACACCATTACTCTCTGCTTTTT) |  |  |  |  |  | reduce DUX4-fl expression | 1.129 | 0.08801 | 1.211 | 0.7642 | 0.7621 | 1.81 | 0.7121 |
| PJ75: shRNA targeting KDM4C; SEQ ID NO: 3 (CCGGGCCCAAGTCTTGGTATGCTATCTCGAGATAGCATACCAAGACTTGGGCTTTTT) |  |  |  |  |  |  | 0.9781 | 0.1812 | 0.7766 | 0.9826 | 1.048 | 1.318 | 1.018 |
| PJ152: shRNA targeting BAZ1A; SEQ ID NO: 9 (guide CCGGGCGATGAAGAAGAAGGTCAAACTCGAGTTTGACCTTCTTCTTCATCGCTTTTTG) |  |  |  |  |  |  | 1.312 | 0.1892 | 0.9047 | 0.8503 | 0.991 | 1.318 | 0.954 |
| PJ195: shRNA targeting SMARCA5; SEQ ID NO: 7 (guide CCGGGTTCTTTAATTTACGGGTCTTCTCGAGAAGACCCGTAAATTAAAGAACTTTTT) |  |  |  |  |  |  | 0.9905 | 0.168 | 0.9865 | 0.7803 | 0.8981 | 0.8003 | 1.024 |
| PJ196: shRNA targeting SMARCA5; SEQ ID NO: 8 (guide CCGGCCGGGCAAATAGATTCGAGTACTCGAGTACTCGAATCTATTTGCCCGGTTTTT) |  |  |  |  |  | reduce DUX4-fl expression | 0.9807 and 1.048 | 0.1085 and 0.1967 | 0.8974 and 0.9209 | 0.469 and 0.5926 | 0.722 and 0.9103 | 0.9247 and 0.9293 | 0.8261 and 1.231 |

Source: patent publication US11963975B2, “Therapeutic targets for facioscapulohumeral muscular dystrophy” (University of Massachusetts, priority 2016, dated 2024)
